# According to patent US20220144812A1, “QUINOLINE DERIVATIVES AND THEIR USE FOR THE TREATMENT OF CANCER” (Epizyme, Inc., priority 2019, published 2022):
# Where two headings read alike, the source gives them in different places.
# Legend:
# 647V cells = experiment: High throughput proliferation (HTP) assay; type: cell-based; conditions: read-out: CREBBP HTP IC50
# In short: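 Proliferation IC50 (micromolar) derived from a 7-day CellTiter-Glo viable-cell readout in 647V cells exposed, in triplicate, to rising compound concentrations; cells grown in DMEM plus 15% heat-inactivated FBS at 37° C under 5% CO2.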
# CREBBP (1084-1701) = target: T1, CREBBP (1084-1701) (Homo sapiens, UniProt Q92793); experiment: Biochemical assay for CREBBP (1084-1701), SAMDI; conditions: read-out: CREBBP Biochemistry IC50
# T1 construct: measured in the following biochemical assay using CREBBP (1084-1701); purchased
# In short: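 Acetyltransferase activity measured by SAMDI mass spectrometry after capture on biochip. Enzyme sat with compound 30 min at RT before acetyl-CoA and biotinylated H3 11-25 (K14R, K23R) peptide were added for 30 min at RT. Formic acid quench, bicarbonate neutralisation; IC50 values reported.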
# EP300 (P300(1048-1664)) = target: T2, EP300 (P300(1048-1664)) (Homo sapiens, UniProt Q09472); experiment: Biochemical assay for EP300, SAMDI; conditions: read-out: EP300 Biochemistry IC50
# T2 construct: P300(1048-1664)
# T2 sequence (Q09472 1048-1664): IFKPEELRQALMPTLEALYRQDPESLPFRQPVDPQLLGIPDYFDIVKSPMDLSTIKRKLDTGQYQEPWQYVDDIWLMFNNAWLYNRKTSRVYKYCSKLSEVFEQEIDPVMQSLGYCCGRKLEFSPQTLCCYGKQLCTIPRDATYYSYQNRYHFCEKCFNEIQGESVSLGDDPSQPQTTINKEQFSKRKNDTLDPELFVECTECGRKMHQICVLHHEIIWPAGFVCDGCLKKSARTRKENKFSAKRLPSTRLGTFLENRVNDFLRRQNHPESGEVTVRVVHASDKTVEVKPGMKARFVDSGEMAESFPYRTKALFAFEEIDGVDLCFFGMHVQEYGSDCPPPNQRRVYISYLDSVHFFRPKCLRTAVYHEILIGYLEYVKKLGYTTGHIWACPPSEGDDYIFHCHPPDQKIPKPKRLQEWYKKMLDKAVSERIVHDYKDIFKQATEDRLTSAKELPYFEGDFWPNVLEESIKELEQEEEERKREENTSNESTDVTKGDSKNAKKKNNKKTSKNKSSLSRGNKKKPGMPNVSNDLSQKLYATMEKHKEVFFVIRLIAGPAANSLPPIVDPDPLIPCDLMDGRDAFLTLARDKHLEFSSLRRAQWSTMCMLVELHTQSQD
# Text: The following example describes materials and methods relating to a biochemical assay for EP300. IC50 values (micromolar (μM)) are summarized in Table 1, Table 2, and Table 3 under the column labeled: “EP300 Biochemistry IC50 (micromolar).”
# [1] = tested on: H3K18Ac in HB-CLS-2 cells; experiment: H3K18AC in-cell western (ICW) assay; type: cell-based; conditions: read-out: CREBBP ICW IC50
# In short: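 In-cell western: after methanol fixation, blocking, overnight 4° C anti-H3K18Ac staining, then 800CW secondary plus DRAQ5 for DNA content, integrated intensities were scanned at 800 and 700 nm. Before this, compound exposure lasted 2 hr at 37° C in HB-CLS-2 cells plated 16–24 hours earlier. Values expressed as IC50 (μM).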
# [2] = Homo sapiens, 647-V, high throughput proliferation
# T1 sequence (Q92793 1084-1701): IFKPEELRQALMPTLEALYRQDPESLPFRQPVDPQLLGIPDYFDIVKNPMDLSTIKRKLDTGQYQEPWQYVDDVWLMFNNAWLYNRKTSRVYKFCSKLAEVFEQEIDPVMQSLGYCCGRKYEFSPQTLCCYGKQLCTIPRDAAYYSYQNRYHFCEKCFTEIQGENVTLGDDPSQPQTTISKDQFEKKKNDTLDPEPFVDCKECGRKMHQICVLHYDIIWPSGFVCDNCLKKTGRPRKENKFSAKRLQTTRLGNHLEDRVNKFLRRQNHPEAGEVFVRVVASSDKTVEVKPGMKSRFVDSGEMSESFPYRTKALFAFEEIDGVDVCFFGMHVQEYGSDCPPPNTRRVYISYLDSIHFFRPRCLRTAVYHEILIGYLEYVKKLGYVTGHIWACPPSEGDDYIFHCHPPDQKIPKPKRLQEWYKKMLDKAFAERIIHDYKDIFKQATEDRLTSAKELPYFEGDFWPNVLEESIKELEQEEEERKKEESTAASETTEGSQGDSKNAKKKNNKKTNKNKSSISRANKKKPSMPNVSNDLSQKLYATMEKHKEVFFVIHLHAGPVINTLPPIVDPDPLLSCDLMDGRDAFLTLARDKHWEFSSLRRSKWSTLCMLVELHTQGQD
IC50 (CREBBP (1084-1701); SAMDI) [nM],"IC50 (EP300 (P300(1048-1664)); EP300, SAMDI) [nM]",IC50 ([1]; H3K18Ac in-cell western) [nM],"IC50 (CREBBP (1084-1701); Peptide #233, Acetyl-CoA, SAMDI mass spectrometry) [nM]","IC50 (EP300 (P300(1048-1664)); P300(1048-1664), Peptide #233, Ac-CoA, SAMDI mass spectrometry) [nM]","IC50 ([1]; 2 h, H3K18Ac in HB-CLS-2 cells, 2 hrs compound incubation) [nM]","IC50 ([1]; H3K18Ac in-cell western, HB-CLS-2 cells) [nM]",SMILES,IC50 (647V cells; [2]) [nM],IC50 (647V cells; high throughput proliferation) [nM],"IC50 (647V cells; Homo sapiens, 647-V, 168 h, 647V cells, day 7, CellTiter-Glo) [nM]","IC50 (647V cells; Homo sapiens, 647-V, high throughput proliferation, 647V cells) [nM]"
3320,1430,513,,,,,CCn1ncc(CN(C)C(=O)c2nc(-c3cnc4c[nH]nc4c3)nc3ccc(Cl)cc23)c1C [Compound 581],839,,,
9700,15800,16400,,,,,CCn1ncc(CN(C)C(=O)c2nc(-c3ccc(OCCCNC)c(C(C)(C)C)c3)nc3ccc(Cl)cc23)c1C [Compound 462],1410,,,
46.3,22.4,174,,,,,CCn1ncc(CN(C)C(=O)c2nc(-c3cc4c(N)[nH]nc4cc3C)nc3ccc(COC)cc23)c1C [Compound 508],212,,,
350,800,4500,,,,,CCn1ncc(CN(C)C(=O)c2nc(-c3cc(Cl)cc(OCCCNC)c3)nc3ccc(Cl)cc23)c1C [Compound 128],1900,,,
,,,98.7,34.4,420,,CCc1ncc(CN(C)C(=O)c2cc(-c3ccc(NCCN(C)C)c(C)n3)nc3ccc(COC)cc23)n1C [Compound 637],,,295,
38000,19300,20000,,,,,CCn1ncc(CN(C)C(=O)c2nc(-c3ccc(OCCNC)c(Cl)c3)nc3ccc(CN(C)C)cc23)c1C [Compound 464],2050,,,
183,32.4,159,,,,,CCn1ncc(C(C)N(C)C(=O)c2cc(-c3ccc(NCCNC)c(C)n3)nc3ccc(Cl)cc23)c1C (stereo not shown) [Compound 533],79.6,,,
≥ 50000,24600,20000,,,,,CCn1ncc(CN(C)C(=O)c2nc(-c3cc(-c4ncon4)n(C)n3)nc3ccc(Cl)cc23)c1C [Compound 450],20000,,,
46.5,45.4,52.7,,,,,CCc1nc(-c2cc(C(=O)N(C)Cc3cnn(CC)c3C)c3cc(Cl)ccc3n2)ccc1NCCN(C)C [Compound 573],49.3,,,
52000,30000,13000,,,,,CCn1ncc(CN(C)C(=O)c2nc(-c3ccc(C(=O)NC)c(C)c3)nc3ccc(Cl)cc23)c1C [Compound 164],9800,,,
18,10.1,70.8,,,,,CCn1ncc(CN(C)C(=O)c2nc(-c3cc(C)cc(NC4CCNC4)c3)nc3ccc(COC)cc23)c1C (stereo not shown) [Compound 479],43.6,,,
3630,1730,3300,,,,,CCn1ncc(CN(C)C(=O)c2cc(-c3ccc(NCC4CN(C)CCO4)c(C)n3)nc3ccc(Cl)cc23)c1C (stereo not shown) [Compound 628],997,,,
2.5,2.5,,,,,78,CCn1ncc(CN(C)C(=O)c2nc(-c3cc4c(N)n[nH]c4cc3C)nc3ccc(Cl)cc23)c1C [Compound 418],,,,62
45,13.7,76.3,,,,,CCn1ncc(CN(C)C(=O)c2cc(-c3cc(NCCN(C)C)cc(C)n3)nc3ccc(Cl)cc23)c1C [Compound 570],30.1,,,
3400,6900,2900,,,,,CCn1ncc(CN(C)C(=O)c2nc(-c3cc(CNC)ccc3C)nc3ccc(Cl)cc23)c1C [Compound 116],1900,,,
2020,2160,2150,,,,,CCc1onc(CN(C)C(=O)c2cc(-c3ccc(NCCNC)c(C)n3)nc3ccc(Cl)cc23)c1C [Compound 548],1860,,,
≥ 50000,≥ 50000,20000,,,,,CCn1ncc(CN(C)C(=O)c2cc(-c3nn(C)c(C(=O)NC)c3C)nc3ccc(Cl)cc23)c1C [Compound 556],6290,,,
28000,15000,13000,,,,,CCn1ncc(CN(C)C(=O)c2cc(-c3ccc(OCCCO)cn3)nc3ccc(Cl)cc23)c1C [Compound 166],11000,,,

SMILES,IC50 (CREBBP (1084-1701); SAMDI) [nM],"IC50 (EP300 (P300(1048-1664)); EP300, SAMDI) [nM]",IC50 ([1]; H3K18Ac in-cell western) [nM],"IC50 (CREBBP (1084-1701); Peptide #233, Acetyl-CoA, SAMDI mass spectrometry) [nM]","IC50 (EP300 (P300(1048-1664)); P300(1048-1664), Peptide #233, Ac-CoA, SAMDI mass spectrometry) [nM]","IC50 ([1]; 2 h, H3K18Ac in HB-CLS-2 cells, 2 hrs compound incubation) [nM]","IC50 ([1]; H3K18Ac in-cell western, HB-CLS-2 cells) [nM]",IC50 (647V cells; [2]) [nM],IC50 (647V cells; high throughput proliferation) [nM],"IC50 (647V cells; Homo sapiens, 647-V, 168 h, 647V cells, day 7, CellTiter-Glo) [nM]","IC50 (647V cells; Homo sapiens, 647-V, high throughput proliferation, 647V cells) [nM]"
CCn1ncc(CN(C)C(=O)c2nc(-c3ccc(NC4CCNCC4)cn3)nc3ccc(Cl)cc23)c1C [Compound 153],390,350,9000,,,,,,4900,,
